Experimental data published in paper PMC3098952 (Bioorganic & medicinal chemistry letters, 2011).

Tests used:
[1] = target: EcMetAP; conditions: read-out: Reported affinity of metal for EcMetAP; ref [30], [31]; cited from earlier work
[2] = target: AbMetAPx (Acinetobacter baumannii, UniProt A0A7U4DGZ4); test: Activation of and metal binding to AbMetAPx by divalent metal ions; format: biochemical, Acinetobacter baumannii ATCC 17978; conditions: Met-AMC fluorescence assay, enzyme 1 µM
[3] = target: AbMetAPy (Acinetobacter baumannii, UniProt V5VCW7); test: Activation of and metal binding to AbMetAPy by divalent metal ions; format: biochemical, Acinetobacter baumannii ATCC 17978; conditions: Met-AMC fluorescence assay, enzyme 1 µM

Compound | Kd [1] [nM] | Activation of AbMetAPx by metal ion [2] | Activation of AbMetAPy by metal ion [3]
[Co+2] [Co(II)] | 300 |  | 
[Mn+2] [Mn(II)] | 6000 |  | 
[Fe+2] [Fe(II)] | 200 |  | 
[Zn+2] [Zn (II)] |  | no activation | no activation
